For this test, the system named is chick chorioallantoic membrane (CAM). As to the kind of experiment: Chick chorioallantoic membrane (CAM) assay, paclitaxel in methylcellulose disks. In kind it is in vivo. The source says: As noted above, the present invention provides methods and compositions which utilize anti-angiogenic factors. Briefly, within the context of the present invention, anti-angiogenic factors should be understood to include any protein, peptide, chemical, or other molecule, which acts to inhibit vascular growth. A variety of methods may be readily utilized to determine the anti-angiogenic activity of a given factor, including for example, chick chorioallantoic membrane ("CAM") assays. Briefly, as described in more detail below in Examples 2A and 2C, a portion of the shell from a freshly fertilized chicken egg is removed, and a methyl cellulose disk containing a sample of the anti-angiogenic factor to be tested is placed on the membrane. After several days (e.g., 48 hours), inhibition of vascular growth by the sample to be tested may be readily determined by visualization of the chick chorioallantoic membrane in the region surrounding the methyl cellulose disk. Inhibition of vascular growth may also be determined quantitatively, for example, by determining the number and size of blood vessels surrounding the methyl cellulose disk, as compared to a control methyl cellulose disk.
Fertilized, domestic chick embryos were incubated for 3 days prior to shell-less culturing. […] These were then placed into an incubator at 90% relative humidity and 3% CO2 and incubated for 3 days.
The membranes of the 8 day-old shell-less embryo were flooded with 2% glutaraldehyde in 0.1M Na cacodylate buffer; additional fixative was injected under the CAM. After 10 minutes in situ, the CAM was removed and placed into fresh fixative for 2 hours at room temperature. The tissue was then washed overnight in cacodylate buffer containing 6% sucrose. The areas of interest were postfixed in 1% osmium tetroxide for 1.5 hours at 4° C. The tissues were then dehydrated in a graded series of ethanols, solvent exchanged with propylene oxide, and embedded in Spurr resin. Thin sections were cut with a diamond knife, placed on copper grids, stained, and examined in a Joel 1200EX electron microscope. Similarly, […] sections were cut and stained with toluene blue for light microscopy.
This imaging setup was used at a magnification of 160 times which permitted the direct visualization of blood cells within the capillaries; thereby blood flow in areas of interest could be easily assessed and recorded. […] This scale represents the degree of overall inhibition with maximal inhibition represented as a 3 on the avascular gradient scale.

With `CC(=O)O[C@H]1C(=O)[C@@]2(C)[C@H]([C@H](OC(=O)c3ccccc3)[C@]3(O)C[C@H](OC(=O)[C@H](O)[C@@H](NC(=O)c4ccccc4)c4ccccc4)C(C)=C1C3(C)C)[C@]1(OC(C)=O)CO[C@@H]1C[C@@H]2O` [paclitaxel], under “48 h exposure, 10μ paclitaxel per 10 ml methylcellulose”, the avascular zone diameter was determined as 6 mm. Further, the inhibition of angiogenesis entry (48 hours after application) is “angiogenesis was inhibited”. Besides, the “cells arrested in mitosis in avascular zones” value (CAM histology) was “abundance of cells arrested in mitosis in all three germ layers”. Under “after application”, the “onset of inhibition of angiogenesis” value is 9 h and the “time without revascularization of avascular zone” value is on record as “at least 7 days”. Moreover, the avascular gradient scale (within 48 hours, depending on concentration) is recorded as 3 (avascularity extending beyond the disk (6 mm in diameter)). The molecule also yielded an avascular zone diameter (within 48 hours, methylcellulose disks) of 6 mm.

Values taken from US5886026A, “Anti-angiogenic compositions and methods of use” (priority 1994, dated 1999).
